Article PMC7036753, “Lipidated Analogs of the LL-37-Derived Peptide Fragment KR12—Structural Analysis, Surface-Active Properties and Antimicrobial Activity” (International Journal of Molecular Sciences, 2020)
≈ marks a conversion by molar mass, not a printed value. Ends that are not written are not given here. Peptide text beside a SMILES is read from it. * marks the point of attachment. Myristoyl = CCCCCCCCCCCCCC(=O)*; Octanoyl = CCCCCCCC(=O)*; X1 = O=C(/C=C/c1ccccc1)*

What was measured:
[1] = tested on: K. pneumoniae ATCC 700603; assay type: cell-based, Klebsiella pneumoniae; settings: ATCC 700603, 18 h
Procedure: (§1) Examination of antimicrobial activity of the test compounds was conducted on reference strains of bacteria assigned to ESKAPE group of pathogens: Enterococcus faecium ATCC 700221, Klebsiella pneumoniae ATCC 700603, Acinetobacter baumannii ATCC BAA-1605, Pseudomonas aeruginosa ATCC 9027, Klebsiella aerogenes ATCC 13048 (formerly Enterobacter aerogenes) and reference strains of Staphylococcus aureus, namely: S. aureus ATCC 25923, S. aureus ATCC 6538, S. aureus ATCC 33591 (MRSA), S. aureus ATCC 9144 and S. aureus ATCC 12598. All the strains were stored at −80 °C in Roti®-Store cryo vials (Carl Roth GmbH, Karlsruhe, Germany) and before the tests were transferred into fresh Mueller-Hinton Medium (BioMaxima, Lublin, Poland) and incubated for 24 h at 37 °C. Subsequently, each bacterial inoculum was seeded on Mueller-Hinton Agar plates (BioMaxima) and incubated again for 24 h. The cultures prepared in this way were used in further antimicrobial assays and prepared as described above. The MIC values were determined by the broth microdilution method according to Clinical and Laboratory Standards Institute Protocol. For this purpose, initial inoculums of bacteria (0.5 × 10^5 colony forming unit (CFU)/mL) in Mueller–Hinton Broth were exposed to the ranging concentrations of compounds (0.5–256 µg/mL) and incubated for 18 h at 37 °C. The experiments were conducted on 96-well microtiter plates, with a final volume of 100 µL. Cell densities were adjusted spectrophotometrically (Multiskan™ GO Microplate Spectrophotometer, Thermo Scientific) at 600 nm. The MICs were taken as the lowest drug concentration at which a visible growth of microorganisms was inhibited. All experiments were conducted in triplicate and included positive (growth) and negative (sterility) controls.

[2] = tested on: S. aureus ATCC 25923 biofilm; assay type: cell-based, Staphylococcus aureus; settings: ATCC 25923, 24 h
Procedure: (§2) The MBECs values were determined according to the method reported previously. Briefly, 24-h cultures of S. aureus, namely: S. aureus ATCC 25923, S. aureus ATCC 6538, S. aureus ATCC 33591 (MRSA), S. aureus ATCC 9144 and S. aureus ATCC 12598 were diluted to a concentration of 0.5 × 10^7 CFU/mL and added to the test wells of polystyrene microdilution flat-bottom plates. After 24-h of incubation at 37 °C, the wells were rinsed three times with PBS to remove non-adherent cells. Subsequently, 100 μL of the test compounds over a concentration range 0.5–256 µg/mL were added to each well and incubated again for 24 h at 37 °C. After this period, 20 μL of the resazurin (7-hydroxy-3H-phenoxazin-3-one-10-oxide, 4 mg/mL) solution was added to each well. After 1 h of incubation, the MBECs were read out. The determined values were recorded as the lowest concentration at which the reduction of resazurin (from blue to pink) was lower or equal to 10 ± 0.5% as compared to the positive (100%) and negative (0%) controls. All experiments were performed in triplicate.

[3] = tested on: S. aureus ATCC 9144 biofilm; assay type: cell-based, Staphylococcus aureus; settings: ATCC 9144, 24 h
Procedure: as §2

[4] = tested on: S. aureus ATCC 33591 (MRSA) biofilm; assay type: cell-based, Staphylococcus aureus; settings: ATCC 33591, 24 h
Procedure: as §2

[5] = tested on: S. aureus ATCC 12598 biofilm; assay type: cell-based, Staphylococcus aureus; settings: ATCC 12598, 24 h
Procedure: as §2

[6] = tested on: S. aureus ATCC 6538 biofilm; assay type: cell-based, Staphylococcus aureus; settings: ATCC 6538, 24 h
Procedure: as §2

[7] = tested on: human keratinocytes (HaCaT); assay type: cell-based; settings: 24 h
Procedure: The cytotoxicity of test compounds (IC50) was evaluated for human keratinocytes (HaCaT, ATCC) using classic MTT assay on 96-well plates. In this assay, a colorimetric determination of the cell metabolic activity was carried out. Specifically, the color intensity reflects the number of live cells that can be measured spectrophotometrically. […] A day after plating 500 cells per well, a series of concentrations (0.5–500 μg/mL) of the test compounds were added. Dimethyl sulfoxide (DMSO) was used as a control in cells at a final concentration of 1.0% (v/v), which was related to the maximal concentration of the solvent compounds used in the experiment. After 24 h of incubation with test compounds, a medium containing 1 mg/mL of MTT was added up to a final concentration of 0.5 mg/mL and subsequently incubated at 37 °C for 4 h. Then, the medium was aspirated and the formazan product was solubilized with DMSO. The background absorbance at 630 nm was subtracted from that at 570 nm for each well (Epoch, BioTek Instruments, Winooski, VT, USA). Six replicates were conducted for each concentration. All experiments were repeated at least twice and the resulting IC50 values were calculated with a GraFit 7 software (v. 7.0, Erithacus, Berkley, CA, USA).

K. aerogenes ATCC 13048 = assay type: cell-based, Klebsiella aerogenes; settings: ATCC 13048, 18 h
Procedure: as §1

[8] = tested on: A. baumannii ATCC BAA-1605; assay type: cell-based, Acinetobacter baumannii; settings: ATCC BAA-1605, 18 h
Procedure: as §1

[9] = tested on: biofilm of S. aureus strains; test: MBEC over reference strains of S. aureus; assay type: cell-based, Staphylococcus aureus
Procedure: as §2

P. aeruginosa ATCC 9027 = assay type: cell-based, Pseudomonas aeruginosa; settings: ATCC 9027, 18 h
Procedure: as §1

[10] = tested on: reference strains of S. aureus; assay type: cell-based, Staphylococcus aureus; settings: reference strains of, 24 h
Procedure: as §1, with “For this purpose, initial inoculums of bacteria (0.5 × 10^5 colony forming unit (CFU)/mL) in Mueller–Hinton Broth were exposed to the ranging concentrations of compounds (0.5–256 µg/mL) and incubated for 18 h at 37 °C.” left out

E. faecium ATCC 700221 = assay type: cell-based, Enterococcus faecium; settings: ATCC 700221, 18 h
Procedure: as §1

ESKAPE strains = assay type: cell-based; settings: 24 h
Procedure: as §1, with “For this purpose, initial inoculums of bacteria (0.5 × 10^5 colony forming unit (CFU)/mL) in Mueller–Hinton Broth were exposed to the ranging concentrations of compounds (0.5–256 µg/mL) and incubated for 18 h at 37 °C.” left out, “The MICs were taken as the lowest drug concentration at which a visible growth of microorganisms was inhibited. All experiments were conducted in triplicate and included positive (growth) and negative (sterility) controls.” left out

S. aureus ATCC 12598 = assay type: cell-based, Staphylococcus aureus; settings: ATCC 12598, 18 h
Procedure: as §1

S. aureus ATCC 25923 = assay type: cell-based, Staphylococcus aureus; settings: ATCC 25923, 18 h
Procedure: as §1

S. aureus ATCC 6538 = assay type: cell-based, Staphylococcus aureus; settings: ATCC 6538, 18 h
Procedure: as §1

S. aureus ATCC 9144 = assay type: cell-based, Staphylococcus aureus; settings: ATCC 9144, 18 h
Procedure: as §1

[11] = tested on: S. aureus ATCC 33591 (MRSA); assay type: cell-based, Staphylococcus aureus; settings: ATCC 33591, 18 h
Procedure: as §1

Compound	MIC [1] [µg/mL]	MBEC [2] [µg/mL]	MBEC [3] [µg/mL]	MBEC [4] [µg/mL]	MBEC [5] [µg/mL]	MBEC [6] [µg/mL]	IC50 [7] [µg/mL]	MIC (K. aerogenes ATCC 13048) [µg/mL]	MIC [8] [µg/mL]	MBEC range [9] [µg/mL]	MIC (P. aeruginosa ATCC 9027) [µg/mL]	GM (geometric mean of the MIC values against S. aureus) [10] [µg/mL]	MIC (E. faecium ATCC 700221) [µg/mL]	MIC range (ESKAPE strains) [µg/mL]	MIC (S. aureus ATCC 12598) [µg/mL]	MIC (S. aureus ATCC 25923) [µg/mL]	MIC (S. aureus ATCC 6538) [µg/mL]	MIC (S. aureus ATCC 9144) [µg/mL]	MIC [11] [µg/mL]
CCCCCCCC(=O)N[C@@H](CCCCN)C(=O)N[C@@H](CCCNC(=N)N)C(=O)N[C@H](C(=O)N[C@H](C(=O)N[C@@H](CCC(N)=O)C(=O)N[C@@H](CCCNC(=N)N)C(=O)N[C@H](C(=O)N[C@@H](CCCCN)C(=O)N[C@@H](CC(=O)O)C(=O)N[C@@H](Cc1ccccc1)C(=O)N[C@@H](CC(C)C)C(=O)N[C@@H](CCCNC(=N)N)C(N)=O)[C@@H](C)CC)C(C)C)[C@@H](C)CC [IV, C8-KR12-NH2] (Octanoyl-KRIVQRIKDFLR-NH2)	2 (≈ 1.18 µM)	8	4	4	4	16	3.23 (≈ 1.9 µM)	2 (≈ 1.18 µM)	2 (≈ 1.18 µM)	4 to 16	2 (≈ 1.18 µM)	2.30	1 (≈ 0.589 µM)	1 to 4	4 (≈ 2.36 µM)	2 (≈ 1.18 µM)	2 (≈ 1.18 µM)	2 (≈ 1.18 µM)	2 (≈ 1.18 µM)
CC[C@H](C)[C@H](NC(=O)[C@H](CCCNC(=N)N)NC(=O)[C@H](CCC(N)=O)NC(=O)[C@@H](NC(=O)[C@@H](NC(=O)[C@H](CCCNC(=N)N)NC(=O)[C@H](CCCCN)NC(=O)/C=C/c1ccccc1)[C@@H](C)CC)C(C)C)C(=O)N[C@@H](CCCCN)C(=O)N[C@@H](CC(=O)O)C(=O)N[C@@H](Cc1ccccc1)C(=O)N[C@@H](CC(C)C)C(=O)N[C@@H](CCCNC(=N)N)C(N)=O [IX, trans-Cinnamic acid-KR12-NH2] (X1-KRIVQRIKDFLR-NH2)	4 (≈ 2.35 µM)	32	8	16	4	8	10.00 (≈ 5.88 µM)	4 (≈ 2.35 µM)	4 (≈ 2.35 µM)		4 (≈ 2.35 µM)	4.00	1 (≈ 0.588 µM)	1 to 8	4 (≈ 2.35 µM)	8 (≈ 4.7 µM)	2 (≈ 1.18 µM)	4 (≈ 2.35 µM)	4 (≈ 2.35 µM)
CCCCCCCCCCCCCC(=O)N[C@@H](CCCCN)C(=O)N[C@@H](CCCNC(=N)N)C(=O)N[C@H](C(=O)N[C@H](C(=O)N[C@@H](CCC(N)=O)C(=O)N[C@@H](CCCNC(=N)N)C(=O)N[C@H](C(=O)N[C@@H](CCCCN)C(=O)N[C@@H](CC(=O)O)C(=O)N[C@@H](Cc1ccccc1)C(=O)N[C@@H](CC(C)C)C(=O)N[C@@H](CCCNC(=N)N)C(N)=O)[C@@H](C)CC)C(C)C)[C@@H](C)CC [VII, C14-KR12-NH2] (Myristoyl-KRIVQRIKDFLR-NH2)	64 (≈ 35.9 µM)	256	128	256	64	256	1.29 (≈ 0.724 µM)	128 (≈ 71.9 µM)	32 (≈ 18 µM)		128 (≈ 71.9 µM)	64.00	8 (≈ 4.49 µM)		128 (≈ 71.9 µM)	128 (≈ 71.9 µM)	64 (≈ 35.9 µM)	64 (≈ 35.9 µM)	16 (≈ 8.98 µM)
Ac-KRIVQRIKDFLR-NH2 [I, Ac-KR12-NH2 (C2-KR12-NH2)]	>256	>256	>256	>256	>256	>256	84.20	>256	>256		64	>256.00	16		>256	>256	256	>256	>256
KRIVQRIKDFLR-NH2 [X, KRIVQRIKDFLR-NH2]	>256	>256	>256	>256	>256	>256	74.60	>256	256		16	>256.00	8		>256	>256	256	>256	>256
